# System: HIF‐1α protein synthesis
# Assay: AHA labeling assay of nascent HIF‐1α protein
# Type: cell-based, human
# Conditions: HEK293T, hypoxia, 10 or 20 µM
# Description: Lysosome and ubiquitin/proteasome systems are two main pathways for cellular protein degradation.^[ [49], [50] ^] MG‐132 and PS‐341 are potent, selective, and reversible proteasome inhibitors, chloroquine (CQ) and NH4Cl are autophagy inhibitors that inhibit lysosomal degradation by increasing lysosomal pH. MG‐132, PS‐341, CQ, NH4Cl, and DMSO at indicated concentrations were added to HEK293T cells for 6 h followed by treatment with DMSO or 10 µM HI‐101 for another 12 h under hypoxia condition. Cells were then collected, lysed, and immunoblotted to detect HIF‐1α protein level. […] In order to verify whether HI‐101 inhibited the synthesis of HIF‐1α protein, L‐azidohomoalanine (AHA) labeling assay^[ [51] ^] was carried out. The nascent protein was labeled by AHA incorporation, enriched by click reaction, and detected by anti‐biotin antibody.
# HEK293T cells seeded in 10 cm dishes were added with DMSO or HI‐101 at concentrations 10 or 20 µM, then cultured in hypoxia incubator. The next day, cells were washed twice with PBS and incubated in DMEM without methionine for 4 h. At the same time, add […] (AHA) to all groups, and the positive control group treatment with cycloheximide (CHX). AHA concentration and incubation time were 50 µM and 4 h. […]
structure (smiles),measurement,value
"O=C(Nc1ccc(C23CC4CC(CC(C4)C2)C3)cc1)c1cccc(Cl)c1 [1‐3a, N‐(4‐((3r,5r,7r)‐Adamantan‐1‐yl)Phenyl)−3‐Chlorobenzamide]","HIF‐1α protein synthesis (nascent, AHA labeled)",significantly inhibited
